Data: patent US20230241242A1, “PREPARATION METHOD FOR ANTIBODY MEDICAMENT CONJUGATE” (priority 2020, published 2023)

Legend:
U87MG cells = assay: Inhibition of in vitro proliferation of tumor cells by compounds (CTG, 6 days); format: cell-based; conditions: Homo sapiens, U-87 MG, 144 h, read-out: IC50 in inhibiting in vitro proliferation of U87 cells
Protocol: (§1) This experiment was intended to detect the inhibitory activity of the pharmaceutical compounds of the present disclosure against the in vitro proliferation of U87MG cells (Cell Bank, Chinese Academy of Sciences, Catalog #TCHu138) and SK-BR-3 tumor cells (human breast cancer cells, ATCC, Cat #HTB-30). The cells were treated in vitro with a compound at different concentrations. After 6 days of culture, the proliferation of cells was tested using CTG (CellTiter-Glo® Luminescent Cell Viability Assay, Promega, Cat #G7573) reagents, and the in vitro activity of the compound was evaluated according to IC50 value.
(§2) The method for testing the inhibition of the in vitro proliferation of U87MG cells was described below as an example for the method for assaying for the inhibitory activity of the compounds of the present disclosure against the in vitro proliferation of tumor cells.
(§3) 1. Cell culture: U87MG and SK-BR-3 cells were cultured in EMEM medium (GE, Cat #SH30024.01) containing 10% FBS and McCoy's 5A medium (Gibco, Cat #16600-108) containing 10% FBS, respectively.
(§4) 2. Cell preparation: U87MG and SK-BR-3 cells growing at log phase were washed once with PBS (phosphate buffer, Shanghai BasalMedia Technologies Co., Ltd.) and then digested with 2-3 mL of trypsin (0.25% Trypsin-EDTA (1×), Gibico, Life Technologies) for 2-3 min After the cells were completely digested, 10-15 mL of cell culture media were added to elute the digested cells. The mixtures were centrifuged at 1000 rpm for 5 min, and the supernatants were discarded. Then the cells were resuspended in 10-20 mL of cell culture media to give single-cell suspensions.
(§5) 3. Cell plating: the U87MG and SK-BR-3 single-cell suspensions were each well mixed and adjusted with cell culture media to cell densities of 2.75×10^3 cells/mL and 8.25×10^3 cells/mL, respectively. The adjusted cell suspensions were each well mixed and added to 96-well cell culture plates at 180 μL/well. To each of the peripheral wells of the 96-well plates was added 200 μL of media only. The plate was incubated in an incubator for 24 h (37° C., 5% CO2).
(§6) 4. Compound preparation: the compound was dissolved in DMSO (dimethyl sulfoxide, Shanghai Titan Scientific Co., Ltd.) to prepare a stock solution at an initial concentration of 10 mM.
(§7) Small molecule compounds were prepared at an initial concentration of 500 nM as follows.
(§8) Different test samples at 100 μM (30 μL) were added to the first column of a 96-well U-bottom plate, and 20 μL of DMSO was added to each well of the second column through the eleventh column. […]
(§9) 7. Plate reading: the 96-well cell culture plate was taken out and tested in a microplate reader (BMG labtech, PHERAstar FS) for chemiluminescence.
(§10) Data were processed and analyzed using Microsoft Excel and Graphpad Prism 5.

[1] = system: human breast cancer cells trastuzumab drug-resistant strain (herceptin) JIMT-1 xenograft tumor; assay: Drug efficacy on JIMT-1 tumor-bearing mice; format: in vivo, nu/nu nude mice; conditions: 10 mg/kg; two intraperitoneal injections; observation for 34 days
Protocol: The tumor volumes and body weights were measured twice a week and the results were recorded.
Tumor volume (V) was calculated as: V=½×Llong×Lshort^2

SK-BR-3 tumor cells = assay: Inhibition of in vitro proliferation of tumor cells by compounds (CTG, 6 days); format: cell-based; conditions: Homo sapiens, SK-BR-3, 144 h, read-out: IC50 in inhibiting in vitro proliferation of SK-BR-3 cells
Protocol: as §1, §2, §3, §4, §5, §6, §7, §8, §9, §10

Row | Molecule | IC50 (U87MG cells) [nM] | tumor inhibition rate [1] | IC50 (SK-BR-3 tumor cells) [nM]
1 | CC[C@@]1(O)C(=O)OCc2c1cc1n(c2=O)Cc2c-1nc1cc(F)c(C)c3c1c2[C@@H](NC(=O)C1(CO)CC1)CC3 [Compound 5, N-((1S,9S)-9-ethyl-5-fluoro-9-hydroxy-4-methyl-10,13-dioxo-2,3,9,10,13,15-hexahydro-1H,12H-benzo[de]pyrano[3′,4′:6,7]indolizino[1,2-b]quinolin-1-yl)-1-(hydroxymethyl)cyclopropane-1-carboxamide] | 4.81 |  | 
2 | T-DM1 |  | no inhibition effect on tumors | 
3 | CC[C@@]1(O)C(=O)OCc2c1cc1n(c2=O)Cc2c-1nc1cc(F)c(C)c3c1c2[C@@H](NC(=O)C1(O)CCCC1)CC3 [Compound 4, N-((1S,9S)-9-ethyl-5-fluoro-9-hydroxy-4-methyl-10,13-dioxo-2,3,9,10,13,15-hexahydro-1H,12H-benzo[de]pyrano[3′,4′:6,7]indolizino[1,2-b]quinolin-1-yl)-1-hydroxycyclopentane-1-carboxamide] |  |  | 1.9
4 | CC[C@@]1(O)C(=O)OCc2c1cc1n(c2=O)Cc2c-1nc1cc(F)c(C)c3c1c2[C@@H](NC(=O)C1(O)CC1)CC3 [Compound 1, N-((1S,9S)-9-ethyl-5-fluoro-9-hydroxy-4-methyl-10,13-dioxo-2,3,9,10,13,15-hexahydro-1H,12H-benzo[de]pyrano[3′,4′:6,7]indolizino[1,2-b]quinolin-1-yl)-1-hydroxycyclopropane-1-carboxamide] | 0.23 |  | 0.12
